The record followed here is US7932051B2, “Blood and urine test” (R-Biopharm AG, priority 2003, dated 2011).

Like-named read-outs stand apart in the source and are kept apart here.

The test system of this assay is microbial inhibition test (Premi®Test). How it is done: Urine samples were examined using microbial inhibition test ampoules produced according to the methods described in EP 0005891 with the nutrients present in the agar. Said test is also known as Premi®Test (commercially available from DSM, Delft, The Netherlands).
Samples were examined as described in Example 1. CaCl2.2H2O was dissolved in water or chicken meat fluid, in concentrations of 0, 0.0078, 0.0156, 0.0312, 0.0625, 0.125, 0.25, 0.5 and 1 M. The samples were added to the test ampoules. After a pre-incubation for 20 minutes at room temperature the sample was removed and the test was incubated in a water bath at 64±1° C. following the instructions of the manufacturer. The results were obtained after 165 minutes for chicken meat fluid and 185 minutes in case of water, by reading the change of color from purple to yellow.

For `[Ca+2].[Cl-].[Cl-]` [CaCl2, Calcium Chloride], the “Color observed in microbial inhibition test” value (CaCl2 0.0078 M in chicken meat fluid, read after 165 minutes) is given as “Yellow”; the “Color observed in microbial inhibition test” value (CaCl2 0.0078 M in water, read after 185 minutes) was “Yellow”; the “Color observed in microbial inhibition test” value (CaCl2 0.0156 M in chicken meat fluid, read after 165 minutes) is “Yellow”; the “Color observed in microbial inhibition test” value (CaCl2 0.0156 M in water, read after 185 minutes) is given as “Yellow”; the “Color observed in microbial inhibition test” value (CaCl2 0.0312 M in chicken meat fluid, read after 165 minutes) was “Yellow”; the “Color observed in microbial inhibition test” value (CaCl2 0.0312 M in water, read after 185 minutes) is reported as “Yellow”. The “Color observed in microbial inhibition test” value reads like this: (CaCl2 0.0625 M in chicken meat fluid, read after 165 minutes) “Yellow”; (CaCl2 0.0625 M in water, read after 185 minutes) “Yellow”; (CaCl2 0.125 M in chicken meat fluid, read after 165 minutes) “Yellow”; (CaCl2 0.125 M in water, read after 185 minutes) “Yellow”; (CaCl2 0.25 M in chicken meat fluid, read after 165 minutes) “Yellow”; (CaCl2 0.25 M in water, read after 185 minutes) “Yellow”. The “Color observed in microbial inhibition test” value reads like this: (CaCl2 0.5 M in chicken meat fluid, read after 165 minutes) “Yellow”; (CaCl2 0.5 M in water, read after 185 minutes) “Purple”; (CaCl2 1 M in chicken meat fluid, read after 165 minutes) “Yellow”; (CaCl2 1 M in water, read after 185 minutes) “Purple”. Besides, the “Concentration of CaCl2 with no inhibition” value (in chicken meat fluid) is “up to 1 M”. Where the note is “in water”, the “Concentration of CaCl2 that does not influence the test results” value is reported as “up to 0.25 M”.
